Data taken from patent US20030176390A1, “Methods of treating insulin resistance syndrome and diabetes” (priority 2001, published 2003).
Blank lines part the entries; values can stand above or below the compound they belong to.

Experiments:
[1] = Insulin tolerance test (3 U/kg s.c.) in insulin resistant Zucker Fatty rats after 3 weeks pretreatment; format: in vivo; design: unit not given here
Experimental: Measurement of Insulin Sensitivity in Conscious Rats.
Insulin resistant Zucker Fatty rats or Zucker Diabetic Fatty (ZDF) rats were treated for up to 3 weeks with the test compound orally once daily. Plasma parameters were obtained by retroorbital bleeding during inhalation anaesthesia on respective study days. […] In the case of improvement of insulin sensitivity by the test compound the blood glucose reduction was much more pronounced and prolonged compared to that of the control group.

[2] = Plasma free fatty acids in anaesthetized starved male Wistar rats; format: in vivo; design: unit not given here
Experimental: Measurement of Plasma Lipdis (Free Fatty Acids, Triglycerides, Cholesterol) in Anaesthetized Rats.
Plasma lipid levels were assayed in anaesthetized rats. Briefly, rats were anaesthetized with an intraperitoneal injection of pentobarbital sodium (60 mg/kg), tracheotomized, and one jugular vein per rat was cannulated for intravenous administration (bolus injection or infusion). Anesthesia was mantained for up to 7 hours by subcutaneous infusion of pentobarbital sodium (adjusted to the anesthetic depth of the individual animal; about 24 mg/kg/h). Body temperature was monitored with a rectal probe thermometer, and temperature was maintained at 37° C. by means of a heated surgical plate. The rats were allowed to stabilize their blood levels after surgery for up to 2 hours, after which the test compound was injected intraperitoneally. Blood samples for glucose analysis (10 μl) were obtained from the tip of the tail every 15 minutes. For analysis of plasma lipids blood samples (0.3 ml) were obtained from the jugular vein either every 10 to 15 minutes for up to 2 hours, or every hour for up to 5 hours after compound administration. Standard enzymatic procedures were used to determine blood glucose (Bergmeyer, 1974).

rat adipocytes = assay: In vitro lipolysis assay (antilipolytic activity in rat adipocytes); format: cell-based; conditions: Rattus norvegicus, Adipocyte, 1 h; norepinephrine-stimulated lipolysis, glycerol assayed, 60 min; read-out: Lipo ec50
Experimental: Determination of Antilipolytic Activity in Rat Adipocytes
Isolation of Adipocytes from Epididymal Fat Pads
Adipose tissue is removed from anesthetized rats and rinsed twice in incubation medium (2.09 g sodium bicarbonate and 0.04 g EDTA, disodium salt, in 1 L Krebs buffer). Each rat (300-350 g) yields approximately 4 mL of adipose tissue. The adipose tissue (35 mL) is cut into small pieces with scissors and washed with incubation medium (50 mL). The mixture is poured into the barrel of a 50 mL syringe to which is attached a short piece of clamped tubing instead of a needle. The aqueous phase is allowed to drain. A second wash with incubation medium is passed through the syringe. The tissue is added to 50 mL of collagenase solution (collagenase (90 mg), bovine serum albumin (BSA) (500 mg), and 0.1 M calcium chloride solution (1 mL), in incubation medium (50 mL)) in a 1 L bottle. The mixture is shaken in an environmental at 37° C. for about 60 minutes under an atmosphere of 95% oxygen/5% carbon dioxide to effect digestion of the tissue. The dispersed cells are poured through 2 layers of cheese cloth into a 100 mL plastic beaker. The undigested clumps in the cloth are rinsed once with incubation medium (20 mL). The cells in the beaker are centrifuged in 2 plastic tubes for 30 seconds at room temperature at 300 rpm. The aqueous phase is aspirated from beneath the loosely packed layer of floating fat cells and discarded. The adipocytes are gently poured into a 250 mL plastic beaker containing 100 mL of rinse solution (1 g BSA per 100 mL incubation medium). After gentle stirring the centrifugation step is repeated. Another wash with rinse solution follows. The cells are pooled and their volume is estimated with a graduated cylinder. The adipocytes are diluted in twice their volume of assay buffer (incubation medium (120 mL), BSA (1.2 g), pyruvic acid (13 mg)).
The assay is performed in 20 mL plastic scintillation vials and the total assay volume is 4.2 mL. Assay buffer (2.5 mL), diluted adipocytes (1.5 mL), and a solution of the compound to be tested (12.3 μL) adenosine agonist (12.3 μl; varying concentration) is incubated in the environmental shaker for 15 minutes, then the reaction is started with norepinephrine solution (41.2 μL) (10 nM, in a carrier solution containing water (100 mL), BSA (4 mg), and 0.1 M EDTA (20 μL))and adenosine deaminase (1 μg/mL, 41.2 μl). After sixty minutes in the shaker the reaction is terminated by putting the vials on ice. […] The hard lipid layer is removed by aspiration and the aqueous layer is assayed for glycerol (400 μl of sample). The positive control is done in the absence of any adenosine agonist, substituting water in place of the solution to be tested.

A2 receptor = conditions: relative to NECA; cited from earlier work
A1 and A2 receptors = conditions: selectivity; cited from earlier work

melting point: 110 to 111 °C
EC50 (rat adipocytes): 3.57 nM
Compound: OC[C@H]1C[C@@H](n2cnc3c(N[C@H]4CCN(c5ccc(C(F)(F)F)cn5)C4)ncnc32)[C@H](O)[C@@H]1O [Example 29, (1R,2S,3R,5R)-5-hydroxymethyl-3-[6-[1-(5-trifluoromethylpyridin-2-yl)pyrrolidin-3(S)-ylamino]-purin-9-yl]cyclopentane-1,2-diol]

melting point: 130 °C (dec.)
EC50 (rat adipocytes): 3.07 nM
Compound: OC[C@H]1O[C@@H](n2cnc3c(NC4CCN(c5ccc(Cl)nn5)C4)ncnc32)[C@H](O)[C@@H]1O (stereo partly drawn) [Example 22, (2R,3R,4S,5R)-5-hydroxymethyl-2-[6-[1-(6-chloropyridazin-3-yl)pyrrolidin-3-ylamino]-purin-9-yl]-tetrahydrofuran-3,4-diol]

melting point: 251 to 253 °C
EC50 (rat adipocytes): 1.37 nM
Compound: COc1cc(N2CC[C@H](Nc3ncnc4c3ncn4[C@@H]3O[C@H](CO)[C@@H](O)[C@H]3O)C2)ncn1 [Example 20, (2R,3R,4S,5R)-5-hydroxymethyl-2-[6-[1-(6-methoxypyrimidin-4-yl)pyrrolidin-3(S)-ylamino]-purin-9-yl]tetrahydrofuran-3,4-diol]

melting point: 169 to 171 °C
EC50 (rat adipocytes): 8 nM
Compound: OC[C@H]1C[C@@H](n2cnc3c(N[C@H]4CCN(c5ccc(Br)cn5)C4)ncnc32)[C@H](O)[C@@H]1O [Example 32, (1R,2S,3R,5R)-3-[6-[1-(5-bromopyridin-2-yl)pyrrolidin-3(S)-ylamino]-purin-9-yl]-5-hydroxymethylcyclopentane-1,2-diol]

melting point: 122 to 124 °C
EC50 (rat adipocytes): 18.6 nM
Compound: COC[C@H]1C[C@@H](n2cnc3c(N[C@H]4CCN(c5ccc(Cl)nn5)C4)ncnc32)[C@H](O)[C@@H]1O [Example 51, (1R,2S,3R,5R)-3-[6-[1-(6-chloropyridazin-3-yl)pyrrolidin-3(S)-ylamino]-purin-9-yl]-5-methoxymethylcyclopentane-1,2-diol]

Continued, compound first:

Compound: COC[C@H]1C[C@@H](n2cnc3c(N[C@H]4CCN(c5ccc(C(F)(F)F)cn5)C4)ncnc32)[C@H](O)[C@@H]1O [Example 3, (1R,2S,3R,5R)-5-methoxymethyl-3-[6-[1-(5-trifluoromethylpyridin2-yl)pyrrolidin-3(S)-ylamino]-purin-9-yl]cyclopentane-1,2-diol]
Insulin tolerance test, blood glucose, mean ([1]; 1 mg/kg p.o. for 3 weeks (first group), 0 minutes after insulin): 4.60
Insulin tolerance test, blood glucose, mean ([1]; 1 mg/kg p.o. for 3 weeks (first group), 60 minutes after insulin): 1.96
Insulin tolerance test, blood glucose, mean ([1]; 1 mg/kg p.o. for 3 weeks (first group), 120 minutes after insulin): 1.59
Insulin tolerance test, blood glucose, mean ([1]; 1 mg/kg p.o. for 3 weeks (first group), 180 minutes after insulin): 1.72
Insulin tolerance test, blood glucose, mean ([1]; 1 mg/kg p.o. for 3 weeks (first group), 240 minutes after insulin): 3.02
Insulin tolerance test, blood glucose, mean ([1]; 1 mg/kg p.o. for 3 weeks (first group), 300 minutes after insulin): 5.13
Insulin tolerance test, blood glucose, mean ([1]; 1 mg/kg p.o. for 3 weeks (first group), 360 minutes after insulin): 4.98
Insulin tolerance test, blood glucose, mean ([1]; 1 mg/kg p.o. for 3 weeks (first group), 420 minutes after insulin): 4.04
Insulin tolerance test, blood glucose, mean ([1]; second group, (1 mg/kg p.o.), 3 weeks, 0 minutes after insulin): 5.17
Insulin tolerance test, blood glucose, mean ([1]; second group, (1 mg/kg p.o.), 3 weeks, 60 minutes after insulin): 1.99
Insulin tolerance test, blood glucose, mean ([1]; second group, (1 mg/kg p.o.), 3 weeks, 120 minutes after insulin): 1.57
Insulin tolerance test, blood glucose, mean ([1]; second group, (1 mg/kg p.o.), 3 weeks, 180 minutes after insulin): 1.44
Insulin tolerance test, blood glucose, mean ([1]; second group, (1 mg/kg p.o.), 3 weeks, 240 minutes after insulin): 2.54
Insulin tolerance test, blood glucose, mean ([1]; second group, (1 mg/kg p.o.), 3 weeks, 300 minutes after insulin): 4.35
Insulin tolerance test, blood glucose, mean ([1]; second group, (1 mg/kg p.o.), 3 weeks, 360 minutes after insulin): 5.63
Insulin tolerance test, blood glucose, mean ([1]; second group, (1 mg/kg p.o.), 3 weeks, 420 minutes after insulin): 6.09
melting point: 166 to 168 °C
plasma free fatty acids, mean ([2]; 10 mg/kg i.p., 10 minutes): 0.42
plasma free fatty acids, mean ([2]; 10 mg/kg i.p., 20 minutes): 0.26
plasma free fatty acids, mean ([2]; 10 mg/kg i.p., 30 minutes): 0.19
plasma free fatty acids, mean ([2]; 10 mg/kg i.p., 40 minutes): 0.19
plasma free fatty acids, mean ([2]; 10 mg/kg i.p., 60 minutes): 0.13
plasma free fatty acids, mean ([2]; 10 mg/kg i.p., −60 minutes): 0.61
plasma free fatty acids, mean ([2]; 30 mg/kg i.p., 10 minutes): 0.24
plasma free fatty acids, mean ([2]; 30 mg/kg i.p., 20 minutes): 0.14
plasma free fatty acids, mean ([2]; 30 mg/kg i.p., 30 minutes): 0.13
plasma free fatty acids, mean ([2]; 30 mg/kg i.p., 40 minutes): 0.10
plasma free fatty acids, mean ([2]; 30 mg/kg i.p., 60 minutes): 0.09
plasma free fatty acids, mean ([2]; 30 mg/kg i.p., −60 minutes): 0.52
EC50 (rat adipocytes): 5.62 nM

Compound: Nc1nc(Nc2ccccc2)nc2c1ncn2[C@@H]1O[C@H](CO)[C@@H](O)[C@H]1O [CV-1808]
fold less potent than NECA in its affinity for the A2 receptor (A2 receptor): 10 fold
A2/A1 ratio (A1 and A2 receptors): 0.19

Compound: OC[C@H]1O[C@@H](n2cnc3c(NC4CCCC4)ncnc32)[C@H](O)[C@@H]1O [CPA, Cyclopentyladenosine]
A2/A1 ratio (A1 and A2 receptors): 780

Compound: COC[C@H]1C[C@@H](n2cnc3c(N[C@H]4CCN(c5cccc(Cl)c5)C4)ncnc32)[C@H](O)[C@@H]1O [Example 56, (1R,2S,3R,5R)-3-[6-[1-(3-chlorophenyl)-pyrrolidin-3(S)-ylamino]-purin-9-yl]-5-methoxymethylcyclopentane-1,2-diol]
melting point: 127 to 130 °C
EC50 (rat adipocytes): 2.4 nM

Compound: N#Cc1ccc(N2CC[C@H](Nc3ncnc4c3ncn4[C@@H]3C[C@H](CO)[C@@H](O)[C@H]3O)C2)cc1 [Example 40, 4-[3(S)-[9-((1R,2S,3R,5R)-1,2-dihydroxy-5-hydroxymethylcyclopent-3-yl)-9H-purin-6-ylamino]pyrrolidin-1-yl]benzonitrile]
melting point: 140 °C
EC50 (rat adipocytes): 10.5 nM

Compound: COC[C@H]1C[C@@H](n2cnc3c(N[C@H]4CCN(c5ccc(C(F)(F)F)cc5)C4)ncnc32)[C@H](O)[C@@H]1O [Example 54, (1R,2S,3R,5R)-5-methoxymethyl-3-[6-[1-(4-trifluoromethylphenyl)pyrrolidin-3(S)-ylamino]-purin-9-yl]cyclopentane-1,2-diol]
melting point: 128 °C
EC50 (rat adipocytes): 27.8 nM
